Assay [1] deals with Human CB1 Receptor-1 (hCB1) (Homo sapiens (Human), UniProt P21554). In words: hCB1 Gai cyclic AMP (cAMP) TR-FRET assay, antagonism of EC80 CP55940 with forskolin. It counts as cell-based. The settings on record: hCB1 cells, 30 min pre-incubation. How it is done:
(§1) Example 3. Biochemical Methods Human CB1 Receptor-1 (hCB1) and Human CB1 Receptor-1b (hCBib)
(§2) hCB1/hCB1 b Gai Cyclic AMP (cAMP) Assays: Cells were seeded in a 384-well plate at an appropriate density from frozen cells. The cAMP assays were performed according to the manufacturer's protocol using MULTISCREEN™ TR-FRET cAMP 1.0 No Wash Assay Kit. Cells (hCB1 or hCB1 b) were pre-incubated with customer compounds for 30 minutes at rt followed by addition of EC80 CP55940 concentration and Forskolin. Cells were then incubated for 20 minutes at 37C. The reaction was terminated by sequentially adding sequentially adding MULTISCREEN™ Eu-labeled cAMP and MULTISCREEN™ 650-labeled anti-cAMP antibody in lysis buffer. The plate was then incubated at rt for 30 minutes before reading fluorescent emissions at 620 nm and 665 with excitation at 314 nm on FlexStation III (Molecular Devices). The results are shown in Table 2 (“***” denotes an IC50<100 nM; “**” denotes an IC50 between 100 nM and 500 nM, and “*” denotes an IC50>500 nM).

Assay [2] addresses Human CB1 Receptor-1b (hCB1b) (Homo sapiens (Human), UniProt P21554). In words: hCB1b Gai cyclic AMP (cAMP) TR-FRET assay, antagonism of EC80 CP55940 with forskolin. In kind it is cell-based. Conditions: hCB1b cells, 30 min pre-incubation, read-out: CB1b IC50. How it is done:
as §1, §2

Sequence of Human CB1 Receptor-1b (hCB1b) (P21554 other isoform, or with tags, fused parts or gaps): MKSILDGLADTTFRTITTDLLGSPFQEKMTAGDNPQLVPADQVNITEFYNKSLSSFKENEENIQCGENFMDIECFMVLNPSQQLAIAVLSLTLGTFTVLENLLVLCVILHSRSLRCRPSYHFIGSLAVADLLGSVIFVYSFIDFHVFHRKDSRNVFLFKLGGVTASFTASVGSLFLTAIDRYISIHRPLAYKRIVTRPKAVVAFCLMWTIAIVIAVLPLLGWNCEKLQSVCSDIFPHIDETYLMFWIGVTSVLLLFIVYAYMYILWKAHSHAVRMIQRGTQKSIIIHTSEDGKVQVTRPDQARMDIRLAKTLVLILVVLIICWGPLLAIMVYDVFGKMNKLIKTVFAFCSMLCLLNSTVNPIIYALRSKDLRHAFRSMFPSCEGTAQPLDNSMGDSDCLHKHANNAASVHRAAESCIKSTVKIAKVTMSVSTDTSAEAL
Sequence of Human CB1 Receptor-1 (hCB1) (P21554 whole entry): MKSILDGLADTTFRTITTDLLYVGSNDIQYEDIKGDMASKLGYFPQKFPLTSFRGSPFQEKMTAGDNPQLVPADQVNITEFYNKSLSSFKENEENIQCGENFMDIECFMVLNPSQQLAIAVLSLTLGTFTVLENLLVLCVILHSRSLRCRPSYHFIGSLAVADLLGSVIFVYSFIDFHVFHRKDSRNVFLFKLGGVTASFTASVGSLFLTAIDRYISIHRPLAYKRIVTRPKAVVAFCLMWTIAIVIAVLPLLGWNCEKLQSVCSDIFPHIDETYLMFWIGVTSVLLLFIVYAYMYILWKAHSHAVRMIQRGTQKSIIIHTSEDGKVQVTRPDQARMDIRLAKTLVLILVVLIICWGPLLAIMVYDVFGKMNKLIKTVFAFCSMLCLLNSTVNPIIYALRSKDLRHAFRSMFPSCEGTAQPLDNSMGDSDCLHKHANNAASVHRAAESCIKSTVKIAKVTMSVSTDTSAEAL

Regarding `NS(=O)(=O)C1CCN(/C(=N/S(=O)(=O)c2ccc(Cl)cc2)N2C[C@H](c3ccccc3)C(c3ccc(F)cc3)=N2)CC1` [Compound 111, (S,Z)-1-((((4-chlorophenyl)sulfonyl)imino)(3-(4-fluorophenyl)-4-phenyl-4,5-dihydro-1H-pyrazol-1-yl)methyl)piperidine-4-sulfonamide], the IC50 in assay [1] and in assay [2] was greater than 500 nM throughout.

With `NS(=O)(=O)C1CCN(/C(=N/S(=O)(=O)c2ccc(Cl)cc2)N2C[C@H](c3ccccc3)C(c3ccc(Cl)cc3)=N2)CC1` [Compound 113, (S,Z)-1-((3-(4-chlorophenyl)-4-phenyl-4,5-dihydro-1H-pyrazol-1-yl)(((4-chlorophenyl)sulfonyl)imino)methyl)piperidine-4-sulfonamide], the IC50 in assay [1] and in assay [2] was greater than 500 nM each time.

In the case of `NS(=O)(=O)[C@@H]1CC[C@H](N/C(=N/S(=O)(=O)c2ccc(Cl)cc2)N2C[C@H](c3ccccc3)C(c3ccc(Cl)cc3)=N2)C1` [Compound 143, (S,Z)-3-(4-chlorophenyl)-N′-((4-chlorophenyl)sulfonyl)-4-phenyl-N-((1S,3R)-3-sulfamoylcyclopentyl)-4,5-dihydro-1H-pyrazole-1-carboximidamide], the IC50 in assay [1] and in assay [2] was less than 100 nM each time.

In the case of `NS(=O)(=O)[C@H]1CC[C@@H](N/C(=N/S(=O)(=O)c2ccc(Cl)cc2)N2C[C@H](c3ccccc3)C(c3ccc(F)cc3)=N2)C1` [Compound 147, (S,Z)-N′-((4-chlorophenyl)sulfonyl)-3-(4-fluorophenyl)-4-phenyl-N-((1R,3S)-3-sulfamoylcyclopentyl)-4,5-dihydro-1H-pyrazole-1-carboximidamide], the IC50 in assay [1] and in assay [2] was 100 to 500 nM each time.

Regarding `NS(=O)(=O)[C@@H]1CC[C@H](N/C(=N/S(=O)(=O)c2ccc(Cl)cc2)N2C[C@H](c3ccccc3)C(c3ccc(F)cc3)=N2)C1` [Compound 149, (S,Z)-N′-((4-chlorophenyl)sulfonyl)-3-(4-fluorophenyl)-4-phenyl-N-((1S,3R)-3-sulfamoylcyclopentyl)-4,5-dihydro-1H-pyrazole-1-carboximidamide], the IC50 in assay [1] and in assay [2] was 100 to 500 nM each time.

`NS(=O)(=O)[C@H]1CC[C@H](N/C(=N/S(=O)(=O)c2ccc(Cl)cc2)N2C[C@H](c3ccccc3)C(c3ccc(F)cc3)=N2)C1` [Compound 151, (S,Z)-N′-((4-chlorophenyl)sulfonyl)-3-(4-fluorophenyl)-4-phenyl-N-((1S,3S)-3-sulfamoylcyclopentyl)-4,5-dihydro-1H-pyrazole-1-carboximidamide]: the values for the concentration for half-maximal inhibition (IC50) in assay [1] and in assay [2] were 100 to 500 nM and less than 100 nM, respectively.

For the compound `NS(=O)(=O)[C@@H]1CC[C@@H](N/C(=N/S(=O)(=O)c2ccc(Cl)cc2)N2C[C@H](c3ccccc3)C(c3ccc(F)cc3)=N2)C1` [Compound 153, (S,Z)-N′-((4-chlorophenyl)sulfonyl)-3-(4-fluorophenyl)-4-phenyl-N-((1R,3R)-3-sulfamoylcyclopentyl)-4,5-dihydro-1H-pyrazole-1-carboximidamide], the IC50 in assay [1] is 100 to 500 nM; in assay [2], less than 100 nM.

In the case of `CN(C)S(=O)(=O)CCN/C(=N\S(=O)(=O)c1ccc(Cl)cc1)N1C[C@H](c2ccccc2)C(c2ccc(Cl)cc2)=N1` [Compound 155, (S,E)-3-(4-chlorophenyl)-N′-((4-chlorophenyl)sulfonyl)-N-(2-(N,N-dimethylsulfamoyl)ethyl)-4-phenyl-4,5-dihydro-1H-pyrazole-1-carboximidamide], the IC50 in assay [1] and in assay [2] was less than 100 nM in each case.

As for `CN1CCN(S(=O)(=O)CCN/C(=N\S(=O)(=O)c2ccc(Cl)cc2)N2C[C@H](c3ccccc3)C(c3ccc(Cl)cc3)=N2)CC1` [Compound 157, (S,E)-3-(4-chlorophenyl)-N′-((4-chlorophenyl)sulfonyl)-N-(2-((4-methylpiperazin-1-yl)sulfonyl)ethyl)-4-phenyl-4,5-dihydro-1H-pyrazole-1-carboximidamide], the IC50 in assay [1] was less than 100 nM; in assay [2] it was 100 to 500 nM.

On to `O=S(=O)(/N=C(\NCCS(=O)(=O)N1CCNCC1)N1C[C@H](c2ccccc2)C(c2ccc(Cl)cc2)=N1)c1ccc(Cl)cc1` [Compound 159, (S,E)-3-(4-chlorophenyl)-N′-((4-chlorophenyl)sulfonyl)-4-phenyl-N-(2-(piperazin-1-ylsulfonyl)ethyl)-4,5-dihydro-1H-pyrazole-1-carboximidamide], for which the IC50 in assay [1] and in assay [2] was less than 100 nM throughout.

On to `CN(C)S(=O)(=O)CCNC(=NS(=O)(=O)c1ccc(Cl)cc1)N1C[C@H](c2ccccc2)C(c2ccc(F)cc2)=N1` [Compound 161, (S,E)-N′-((4-chlorophenyl)sulfonyl)-N-(2-(N,N-dimethylsulfamoyl)ethyl)-3-(4-fluorophenyl)-4-phenyl-4,5-dihydro-1H-pyrazole-1-carboximidamide], for which the IC50 in assay [1] and in assay [2] was 100 to 500 nM each time.

Regarding `CN1CCN(S(=O)(=O)CCN/C(=N\S(=O)(=O)c2ccc(Cl)cc2)N2C[C@H](c3ccccc3)C(c3ccc(F)cc3)=N2)CC1` [Compound 163, (S,E)-N′-((4-chlorophenyl)sulfonyl)-3-(4-fluorophenyl)-N-(2-((4-methylpiperazin-1-yl)sulfonyl)ethyl)-4-phenyl-4,5-dihydro-1H-pyrazole-1-carboximidamide], the concentration for half-maximal inhibition (IC50) in assay [1] was less than 100 nM; in assay [2], 100 to 500 nM.

Regarding `CN1CCN(S(=O)(=O)CCN/C(=N\S(=O)(=O)c2ccc(F)cc2)N2C[C@H](c3ccccc3)C(c3ccc(F)cc3)=N2)CC1` [Compound 165, (S,E)-3-(4-fluorophenyl)-N′-((4-fluorophenyl)sulfonyl)-N-(2-((4-methylpiperazin-1-yl)sulfonyl)ethyl)-4-phenyl-4,5-dihydro-1H-pyrazole-1-carboximidamide], the results for the 50% inhibitory concentration (IC50) in assay [1] and in assay [2] were less than 100 nM and 100 to 500 nM, respectively.

Consider `CN(C)S(=O)(=O)CCN/C(=N\S(=O)(=O)c1ccc(F)cc1)N1C[C@H](c2ccccc2)C(c2ccc(F)cc2)=N1` [Compound 167, (S,E)-N-(2-(N,N-dimethylsulfamoyl)ethyl)-3-(4-fluorophenyl)-N′-((4-fluorophenyl)sulfonyl)-4-phenyl-4,5-dihydro-1H-pyrazole-1-carboximidamide], for which the IC50 in assay [1] and in assay [2] was less than 100 nM each time.

With `CNS(=O)(=O)CCN/C(=N\S(=O)(=O)c1ccc(Cl)cc1)N1C[C@H](c2ccccc2)C(c2ccc(Cl)cc2)=N1` [Compound 169, (S,E)-3-(4-chlorophenyl)-N′-((4-chlorophenyl)sulfonyl)-N-(2-(N-methylsulfamoyl)ethyl)-4-phenyl-4,5-dihydro-1H-pyrazole-1-carboximidamide], the half-maximal inhibitory concentration (IC50) in assay [1] and in assay [2] was less than 100 nM each time.

On to `CN(CCNS(N)(=O)=O)/C(=N\S(=O)(=O)c1ccc(Cl)cc1)N1C[C@H](c2ccccc2)C(c2ccc(Cl)cc2)=N1` [Compound 173, (S,E)-3-(4-chlorophenyl)-N′-((4-chlorophenyl)sulfonyl)-N-methyl-4-phenyl-N-(2-(sulfamoylamino)ethyl)-4,5-dihydro-1H-pyrazole-1-carboximidamide], for which the IC50 in assay [1] and in assay [2] was 100 to 500 nM throughout.

As to `NS(=O)(=O)NCCN/C(=N\S(=O)(=O)c1ccc(Cl)cc1)N1C[C@H](c2ccccc2)C(c2ccc(Cl)cc2)=N1` [Compound 183, (S,E)-3-(4-chlorophenyl)-N′-((4-chlorophenyl)sulfonyl)-4-phenyl-N-(2-(sulfamoylamino)ethyl)-4,5-dihydro-1H-pyrazole-1-carboximidamide], the IC50 in assay [1] and in assay [2] was less than 100 nM in each case.

Consider `CC(CN/C(=N\S(=O)(=O)c1ccc(Cl)cc1)N1C[C@H](c2ccccc2)C(c2ccc(Cl)cc2)=N1)NS(N)(=O)=O` (stereo partly drawn) [Compound 185, (4S,E)-3-(4-chlorophenyl)-N′-((4-chlorophenyl)sulfonyl)-4-phenyl-N-(2-(sulfamoylamino)propyl)-4,5-dihydro-1H-pyrazole-1-carboximidamide], for which the IC50 in assay [1] is 100 to 500 nM; in assay [2] it was less than 100 nM.

`CN(CCNC(=NS(=O)(=O)c1ccc(Cl)cc1)N1C[C@H](c2ccccc2)C(c2ccc(Cl)cc2)=N1)S(N)(=O)=O` [Compound 187, (S,E)-3-(4-chlorophenyl)-N′-((4-chlorophenyl)sulfonyl)-N-(2-(methyl(sulfamoyl)amino)ethyl)-4-phenyl-4,5-dihydro-1H-pyrazole-1-carboximidamide]: the IC50 in assay [1] and in assay [2] was 100 to 500 nM throughout.

Consider `NS(=O)(=O)N1CC(N/C(=N\S(=O)(=O)c2ccc(Cl)cc2)N2C[C@H](c3ccccc3)C(c3ccc(Cl)cc3)=N2)C1` [Compound 191, (S,E)-3-(4-chlorophenyl)-N′-((4-chlorophenyl)sulfonyl)-4-phenyl-N-(1-sulfamoylazetidin-3-yl)-4,5-dihydro-1H-pyrazole-1-carboximidamide], for which the IC50 in assay [1] and in assay [2] was less than 100 nM throughout.

In the case of `NS(=O)(=O)O[C@H]1C[C@@H](N/C(=N\S(=O)(=O)c2ccc(C(F)(F)F)cc2)N2C[C@@H](c3ccccc3)C(c3ccc(Cl)cc3)=N2)C1` [Compound 228, (1R,3s)-3-((R,E)-3-(4-chlorophenyl)-4-phenyl-N′-((4-(trifluoromethyl)phenyl)sulfonyl)-4,5-dihydro-1H-pyrazole-1-carboximidamido)cyclobutyl sulfamate], the half-inhibitory concentration (IC50) is greater than 500 nM in assay [1] and less than 100 nM in assay [2].

The record behind these values is patent US20250248973A1, “CANNABINOID RECEPTOR 1 ANTAGONISTS/INVERSE AGONISTS AND USES THEREOF” (Corbus Pharmaceuticals, Inc., priority 2022, published 2025).
